ChEMBL document CHEMBL4813945, “Discovery and development of novel pyrimidine and pyrazolo/thieno-fused pyrimidine derivatives as potent and orally active inducible nitric oxide synthase dimerization inhibitor with efficacy for arthritis” (Eur J Med Chem, 2021)

Key:
RAW264.7 [1] = assay: Cytotoxicity against mouse RAW264.7 cells at 20 uM measured after 24 hrs; assay type: cell-based; details: raw264.7, 24 h
RAW264.7 [2] = assay: Antiinflammatory activity against mouse RAW264.7 cells assessed as inhibition of LPS-induced NO production at 10 uM preincubated for 1 hrs followed by LPS stimulation and measured after 24 hrs by Griess assay relative to control; assay type: functional; details: time 25 hrs
L02 = assay: Antiinflammatory activity against human L02 assessed as inhibition of LPS-induced NO production preincubated for 1 hrs followed by LPS stimulation and measured after 24 hrs by Griess assay relative to control; assay type: functional, cell-based

| Compound | Activity (RAW264.7 [1]) | inhibition at 10 µM (RAW264.7 [2]) [%] | IC50 (L02) [µM] |
| --- | --- | --- | --- |
| CCCc1nn(C)c2c(NCCc3cccc(Cl)c3)nc(CCc3cccnc3)nc12 | Non-Toxic | 37.5 | 612 |
| CCCCNc1nc(/C=C/c2ccccc2)nc2ccsc12 | Non-Toxic | 22.4 | > 1000 |
| CCCc1nn(C)c2c(NCCc3ccccc3)nc(CCc3cccnc3)nc12 | Non-Toxic | 36.5 | 783 |
| CCCc1nn(C)c2c(N3CCOCC3)nc(/C=C/c3ccc[n+]([O-])c3)nc12 | Non-Toxic | 20.8 | 817 |
| COc1cc(/C=C/c2nc(Cl)cc(NCCc3ccccc3)n2)cc(OC)c1OC | Non-Toxic | 31.2 | < 40 |
| CC(C)c1ccc(Nc2nc(/C=C/c3ccco3)nc3ccsc23)cc1 | Non-Toxic | 31.7 | > 1000 |
| COc1cc(/C=C/c2nc(NCCc3ccccc3)c3sccc3n2)cc(OC)c1OC | Non-Toxic | 46.2 | < 40 |
| COc1cc(/C=C/c2nc(O)nc(NCCc3ccc(F)cc3)n2)cc(OC)c1OC | Non-Toxic | 36.5 | 483 |
| CNc1nc(/C=C/c2ccco2)nc2ccsc12 | Non-Toxic | 29.1 | 811 |
| COc1cc(/C=C/c2nc(NCc3ccccc3Cl)c3sccc3n2)cc(OC)c1OC | Non-Toxic | 21.9 | > 1000 |
| COc1cc(/C=C/c2nc(N3CCCC3)c3sccc3n2)cc(OC)c1OC | Non-Toxic | 33.2 | 681 |
| COc1cc(/C=C/c2nc(Nc3ccc(C(C)C)cc3)c3sccc3n2)cc(OC)c1OC | Non-Toxic | 13.3 | 370 |
| CCCc1nn(C)c2c(NCc3ccc(F)cc3)nc(/C=C/c3cccnc3)nc12 | Non-Toxic | 61.3 | 940 |
| CCCc1nn(C)c2c(N3CCOCC3)nc(/C=C/c3nc(C)c(C)nc3C)nc12 | Non-Toxic | 74.2 | 370 |
| COc1cc(/C=C/c2nc(NCc3ccco3)c3sccc3n2)cc(OC)c1OC | Non-Toxic | 46.5 | 189 |
| CCCc1nn(C)c2c(N3CCOCC3)nc(/C=C/c3cccnc3)nc12 | Non-Toxic | 69.9 | 535 |
| CCCc1nn(C)c2c(NCCc3cccc(Cl)c3)nc(/C=C/c3ccc[n+]([O-])c3)nc12 | Non-Toxic | 37.5 | 162 |
| CCCc1nn(C)c2c(NC3CC3)nc(/C=C/c3cccnc3)nc12 | Non-Toxic | 49.5 | 261 |
| COc1cc(/C=C/c2nc(OCc3ccccc3)c3sccc3n2)cc(OC)c1OC | Non-Toxic | 33.8 | > 1000 |
| CCCc1nn(C)c2c(N3CCS(=O)(=O)CC3)nc(/C=C/c3ccc[n+]([O-])c3)nc12 | Non-Toxic | 3.13 | > 1000 |
| Brc1cccc(Nc2nc(/C=C/c3ccccc3)nc3ccsc23)c1 | Non-Toxic | 28.8 | > 1000 |
| C(=C\c1ccco1)/c1nc(NCc2ccccc2)c2sccc2n1 | Non-Toxic | 64.1 | > 1000 |

| Compound | Activity (RAW264.7 [1]) | inhibition at 10 µM (RAW264.7 [2]) [%] | IC50 (L02) [µM] |
| --- | --- | --- | --- |
| CCCc1nn(C)c2c(NC3CC3)nc(CCc3cccnc3)nc12 | Non-Toxic | 7.29 | 564 |
| COc1cc(/C=C/c2nccc(NCCc3ccccc3)n2)cc(OC)c1OC | Non-Toxic | 85 | < 40 |
| COc1cc(/C=C/c2nccc(NCCc3ccc(F)cc3)n2)cc(OC)c1OC | Non-Toxic | 47 | 544 |
| CC(C)Nc1nc(/C=C/c2ccccc2)nc2ccsc12 | Non-Toxic | 22.9 | > 1000 |
| CCCc1nn(C)c2c(NC(C)C)nc(/C=C/c3ccc[n+]([O-])c3)nc12 | Non-Toxic | 45.8 | 324 |
| CCCc1nn(C)c2c(N3CCOCC3)nc(CCc3cccnc3)nc12 | Non-Toxic | 27.1 | 859 |
| CCCc1nn(C)c2c(NC(C)C)nc(/C=C/c3cccnc3)nc12 | Non-Toxic | 74.2 | 574 |
| CC(C)CNc1nc(/C=C/c2ccccc2)nc2ccsc12 | Non-Toxic | 25 | > 1000 |
| C(=C\c1nc(Nc2ccccc2)c2sccc2n1)/c1ccccc1 | Non-Toxic | 21 | > 1000 |
| C(=C\c1ccco1)/c1nc(N2CCOCC2)c2sccc2n1 | Non-Toxic | 28.1 | > 1000 |
| C(=C\c1ccco1)/c1nc(NC2CC2)c2sccc2n1 | Non-Toxic | 33.3 | > 1000 |
| COc1ccc(Nc2nc(/C=C/c3ccccc3)nc3ccsc23)cc1 | Non-Toxic | 21.9 | > 1000 |
| COc1cc(/C=C/c2nc(N(C)C)c3sccc3n2)cc(OC)c1OC | Non-Toxic | 27.2 | > 1000 |
| CNc1nc(/C=C/c2cc(OC)c(OC)c(OC)c2)nc2ccsc12 | Non-Toxic | 39.5 | > 1000 |
| COc1cc(/C=C/c2nc(O)nc(NC(C)C)n2)cc(OC)c1OC | Non-Toxic | 34 | < 40 |
| Brc1ccc(Nc2nc(/C=C/c3ccccc3)nc3ccsc23)cc1 | Non-Toxic | 19.5 | > 1000 |
| Clc1ccc(CNc2nc(/C=C/c3ccco3)nc3ccsc23)cc1 | Non-Toxic | 13 | > 1000 |
| Fc1ccc(CNc2nc(/C=C/c3ccccc3)nc3ccsc23)cc1 | Non-Toxic | 23.4 | > 1000 |
| CCCc1nn(C)c2c(NCCc3ccccc3)nc(/C=C/c3cccnc3)nc12 | Non-Toxic | 77.4 | > 1000 |
| Clc1ccccc1CNc1nc(/C=C/c2ccccc2)nc2ccsc12 | Non-Toxic | 35.2 | > 1000 |
| CNc1nc(/C=C/c2ccccc2)nc2ccsc12 | Non-Toxic | 21.9 | > 1000 |
| CCCc1nn(C)c2c(NC(C)C)nc(/C=C/c3nc(C)c(C)nc3C)nc12 | Non-Toxic | 54.8 | 342 |

| Compound | Activity (RAW264.7 [1]) | inhibition at 10 µM (RAW264.7 [2]) [%] | IC50 (L02) [µM] |
| --- | --- | --- | --- |
| Fc1ccccc1CNc1nc(/C=C/c2ccco2)nc2ccsc12 | Non-Toxic | 11.7 | > 1000 |
| Fc1ccccc1CCNc1nc(/C=C/c2ccccc2)nc2ccsc12 | Non-Toxic | 29.8 | > 1000 |
| CCCc1nn(C)c2c(N3CCS(=O)(=O)CC3)nc(CCc3cccnc3)nc12 | Non-Toxic | 15.6 | > 1000 |
| COc1cc(/C=C/c2nc(N3CCOCC3)c3sccc3n2)cc(OC)c1OC | Non-Toxic | 12.2 | > 1000 |
| CCCc1nn(C)c2c(NCCc3ccccc3)nc(/C=C/c3ccc[n+]([O-])c3)nc12 | Non-Toxic | 72.9 | 392 |
| COc1cccc(CNc2nc(/C=C/c3ccccc3)nc3ccsc23)c1 | Non-Toxic | 30.7 | > 1000 |
| COc1cc(/C=C/c2nc(NC(C)C)c3sccc3n2)cc(OC)c1OC | Non-Toxic | 59.1 | > 1000 |
| CCCc1nn(C)c2c(NCc3ccc(F)cc3)nc(/C=C/c3ccc[n+]([O-])c3)nc12 | Non-Toxic | 64.6 | < 40 |
| COc1cc(/C=C/c2nc(Nc3ccc(C)cc3)c3sccc3n2)cc(OC)c1OC | Non-Toxic | 19.2 | < 40 |
| CN(C)c1nc(/C=C/c2ccccc2)nc2ccsc12 | Non-Toxic | 3.57 | > 1000 |
| Brc1ccc(CNc2nc(/C=C/c3ccccc3)nc3ccsc23)cc1 | Non-Toxic | 19.5 | > 1000 |
| COc1cc(/C=C/c2nc(N(C)c3ccccc3)c3sccc3n2)cc(OC)c1OC | Non-Toxic | 32.5 | 767 |
| CCCc1nn(C)c2c(NCCc3cccc(Cl)c3)nc(/C=C/c3cccnc3)nc12 | Non-Toxic | 66.7 | > 1000 |
| CCCc1nn(C)c2c(NC(C)C)nc(CCc3cccnc3)nc12 | Non-Toxic | 30.2 | 514 |
| C(=C\c1nc(N2CCOCC2)c2sccc2n1)/c1ccccc1 | Non-Toxic | 34.1 | > 1000 |
| CCCc1nn(C)c2c(NCCc3cccc(Cl)c3)nc(/C=C/c3nc(C)c(C)nc3C)nc12 | Non-Toxic | 68.8 | 786 |
| COc1cc(/C=C/c2nccc(NC(C)C)n2)cc(OC)c1OC | Non-Toxic | 61 | < 40 |
| FC(F)(F)c1ccc(Nc2nc(/C=C/c3ccccc3)nc3ccsc23)cc1 | Non-Toxic | 30.1 | > 1000 |
| CCCc1nn(C)c2c(NCCc3ccccc3)nc(/C=C/c3nc(C)c(C)nc3C)nc12 | Non-Toxic | 52.7 | < 40 |
| CCCc1nn(C)c2c(NC3CC3)nc(/C=C/c3ccc[n+]([O-])c3)nc12 | Non-Toxic | 29.2 | 580 |
